Laboratory results: ChEMBL document CHEMBL6120968, “Discovery of Thiadiazoleamide Derivatives as Potent, Selective, and Orally Available Antagonists Disrupting Androgen Receptor Homodimer” (J Med Chem, 2024)

Assays:
Androgen receptor [1] = target: T1, Androgen receptor (Homo sapiens, UniProt P10275); assay: Antagonist activity at Androgen receptor in human LNCaP cells transfected with ARR2PB-eGFP incubated for 3 days by synergy H1 microplate reader analysis; format: cell-based
T1 sequence (P10275 whole entry): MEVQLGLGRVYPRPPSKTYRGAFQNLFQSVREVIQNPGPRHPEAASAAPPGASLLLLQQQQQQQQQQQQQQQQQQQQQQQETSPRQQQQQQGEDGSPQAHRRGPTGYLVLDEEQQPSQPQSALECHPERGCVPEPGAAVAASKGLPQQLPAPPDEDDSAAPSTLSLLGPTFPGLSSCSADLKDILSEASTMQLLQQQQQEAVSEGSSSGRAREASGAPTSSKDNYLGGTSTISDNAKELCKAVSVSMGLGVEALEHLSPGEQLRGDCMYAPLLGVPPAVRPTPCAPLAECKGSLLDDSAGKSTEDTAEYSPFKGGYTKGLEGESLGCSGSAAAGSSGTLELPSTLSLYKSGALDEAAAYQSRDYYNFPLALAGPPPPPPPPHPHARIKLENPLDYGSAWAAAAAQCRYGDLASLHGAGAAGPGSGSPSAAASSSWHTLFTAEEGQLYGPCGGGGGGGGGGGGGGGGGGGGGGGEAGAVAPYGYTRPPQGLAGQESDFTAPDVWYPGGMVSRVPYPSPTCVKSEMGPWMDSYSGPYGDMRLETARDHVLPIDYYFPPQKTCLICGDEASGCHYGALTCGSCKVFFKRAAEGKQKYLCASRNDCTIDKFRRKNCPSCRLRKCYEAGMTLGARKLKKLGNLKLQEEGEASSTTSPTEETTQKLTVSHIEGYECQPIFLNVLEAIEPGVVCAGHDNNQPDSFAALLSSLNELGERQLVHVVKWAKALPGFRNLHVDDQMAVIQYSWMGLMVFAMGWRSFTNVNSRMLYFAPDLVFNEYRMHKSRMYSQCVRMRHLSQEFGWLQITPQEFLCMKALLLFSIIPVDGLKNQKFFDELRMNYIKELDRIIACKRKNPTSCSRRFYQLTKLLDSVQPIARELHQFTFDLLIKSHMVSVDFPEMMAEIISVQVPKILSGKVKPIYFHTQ

NIH3T3 = assay: Antiproliferative activity against mouse 3T3 cells assessed as reduction in cell viability incubated for 3 days by MTT assay; format: toxicity, cell-based; conditions: nih3t3, 72 h, time 3 day
[2] = Antiproliferative activity against human WPMY-1 cells assessed as reduction in cell viability upto 2 uM incubated for 3 days by MTT assay; format: toxicity, cell-based; conditions: wpmy-1, 72 h, time 3 day
Androgen receptor [3] = target: Androgen receptor (Homo sapiens, UniProt P10275, F877L); assay: Antagonist activity at Androgen receptor F877L mutant in human HEK293T cells cotransfected with MMTV-luc and renilla plasmid incubated for 24 hrs by Dual luciferase assay; format: cell-based
Androgen receptor [4] = target: Androgen receptor (Homo sapiens, UniProt P10275, W742C); assay: Antagonist activity at Androgen receptor W742C mutant in human HEK293T cells cotransfected with MMTV-luc and renilla plasmid incubated for 24 hrs by Dual luciferase assay; format: cell-based
[5] = Tmax in rat at 20 mg/kg, po by LC-MS/MS analysis; format: ADME, organism-based; conditions: in vivo
[6] = AUC (0 to t) in rat at 20 mg/kg, po by LC-MS/MS analysis; format: ADME, organism-based; conditions: in vivo
[7] = AUC (0 to t) in rat at 20 mg/kg, iv by LC-MS/MS analysis; format: ADME, organism-based; conditions: in vivo
[8] = Observed apparent volume of distribution during terminal phase in rat at 20 mg/kg, po by LC-MS/MS analysis; format: ADME, organism-based; conditions: in vivo, read-out: Vz/F_obs
[9] = Observed apparent volume of distribution during terminal phase in rat at 20 mg/kg, iv by LC-MS/MS analysis; format: ADME, organism-based; conditions: in vivo
[10] = Observed apparent oral clearance in rat at 20 mg/kg, iv by LC-MS/MS analysis; format: ADME, organism-based; conditions: in vivo
[11] = MRTlast in rat at 20 mg/kg, po by LC-MS/MS analysis; format: ADME, organism-based; conditions: in vivo
[12] = Oral bioavailability in rat at 20 mg/kg by LC-MS/MS analysis; format: ADME, organism-based; conditions: in vivo
[13] = Microsomal stability in human liver microsome assessed as half life measured upto 60 mins in presence of NADPH and UDPGA by HPLC-MS/MS analysis; format: ADME; conditions: liver microsomes
[14] = Microsomal stability in monkey liver microsome assessed as half life measured upto 60 mins in presence of NADPH and UDPGA by HPLC-MS/MS analysis; format: ADME, Macaca mulatta; conditions: rhesus monkey, liver microsomes
[15] = Microsomal stability in Beagle dog liver microsome assessed as half life measured upto 60 mins in presence of NADPH and UDPGA by HPLC-MS/MS analysis; format: ADME, Canis lupus familiaris; conditions: liver microsomes
[16] = Microsomal stability in human liver microsome assessed as intrinsic clearance measured upto 60 mins in presence of NADPH and UDPGA by HPLC-MS/MS analysis; format: ADME; conditions: liver microsomes, read-out: CLH
[17] = Microsomal stability in monkey liver microsome assessed as intrinsic clearance measured upto 60 mins in presence of NADPH and UDPGA by HPLC-MS/MS analysis; format: ADME, Macaca mulatta; conditions: rhesus monkey, liver microsomes, read-out: CLH
[18] = Microsomal stability in rat liver microsome assessed as intrinsic clearance measured upto 60 mins in presence of NADPH and UDPGA by HPLC-MS/MS analysis; format: ADME; conditions: liver microsomes, read-out: CLH
[19] = Microsomal stability in mouse liver microsome assessed as intrinsic clearance measured upto 60 mins in presence of NADPH and UDPGA by HPLC-MS/MS analysis; format: ADME; conditions: liver microsomes, read-out: CLH
[20] = Microsomal stability in human liver microsome assessed as parent compound remaining at 60 mins in presence of NADPH and UDPGA by HPLC-MS/MS analysis; format: ADME; conditions: liver microsomes, read-out: Stability
[21] = Microsomal stability in monkey liver microsome assessed as parent compound remaining at 60 mins in presence of NADPH and UDPGA by HPLC-MS/MS analysis; format: ADME, Macaca mulatta; conditions: rhesus monkey, liver microsomes, read-out: Stability
[22] = Microsomal stability in mouse liver microsome assessed as parent compound remaining at 60 mins in presence of NADPH and UDPGA by HPLC-MS/MS analysis; format: ADME; conditions: liver microsomes, read-out: Stability
[23] = Toxicity in male CB17.SCID mouse implanted with human LNCaP cells assessed as body weight loss at 40 mg/kg, po measured upto 30 days; format: organism-based; conditions: in vivo, 720 h, time < 30 day
[24] = Acute toxicity in po dosed male CB17.SCID mouse implanted with human LNCaP cells assessed as body weight loss measured within 14 days; format: organism-based; conditions: in vivo, time 14 day
[25] = Acute toxicity in male CB17.SCID mouse implanted with human LNCaP cells assessed as body weight loss at 1250 mg/kg, po measured within 14 days; format: organism-based; conditions: in vivo, 336 h, time 14 day
[26] = Acute toxicity in male CB17.SCID mouse implanted with human LNCaP cells assessed as abnormal behavior at 1250 mg/kg, po measured within 14 days; format: organism-based; conditions: in vivo, 336 h, time 14 day

Sequence of Androgen receptor (Homo sapiens, UniProt P10275, F877L) (P10275 whole entry F877L): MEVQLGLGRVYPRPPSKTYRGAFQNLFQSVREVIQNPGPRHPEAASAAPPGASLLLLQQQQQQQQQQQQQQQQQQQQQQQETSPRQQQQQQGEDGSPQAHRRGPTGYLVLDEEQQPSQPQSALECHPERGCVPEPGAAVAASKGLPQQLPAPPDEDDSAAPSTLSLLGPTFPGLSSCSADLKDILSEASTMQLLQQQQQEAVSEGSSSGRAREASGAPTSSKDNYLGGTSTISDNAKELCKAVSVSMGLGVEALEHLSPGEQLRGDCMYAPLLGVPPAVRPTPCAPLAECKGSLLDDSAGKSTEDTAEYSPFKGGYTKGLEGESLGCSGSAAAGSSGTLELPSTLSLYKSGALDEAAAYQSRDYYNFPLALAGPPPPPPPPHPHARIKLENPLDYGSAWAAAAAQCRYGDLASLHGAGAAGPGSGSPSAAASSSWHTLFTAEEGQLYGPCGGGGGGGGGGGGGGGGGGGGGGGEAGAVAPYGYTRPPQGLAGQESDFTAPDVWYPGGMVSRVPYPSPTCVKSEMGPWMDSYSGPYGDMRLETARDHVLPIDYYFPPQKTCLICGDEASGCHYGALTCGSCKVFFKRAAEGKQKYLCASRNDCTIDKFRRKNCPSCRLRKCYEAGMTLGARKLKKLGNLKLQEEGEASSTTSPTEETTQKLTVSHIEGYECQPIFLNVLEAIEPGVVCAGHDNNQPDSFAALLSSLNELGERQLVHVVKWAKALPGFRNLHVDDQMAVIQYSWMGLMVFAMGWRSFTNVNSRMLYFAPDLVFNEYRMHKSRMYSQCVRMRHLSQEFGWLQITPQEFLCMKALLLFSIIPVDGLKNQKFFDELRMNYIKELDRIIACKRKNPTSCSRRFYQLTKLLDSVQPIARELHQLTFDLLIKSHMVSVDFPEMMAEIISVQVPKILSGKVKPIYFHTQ
Sequence of Androgen receptor (Homo sapiens, UniProt P10275, W742C) (P10275 whole entry W742C): as the sequence (P10275 whole entry F877L) above, with W742C, L877F counted along it

Cc1oc(-c2cccc(C(F)(F)F)c2)cc1C(=O)Nc1nc(CN2CCOCC2)ns1
IC50 (Androgen receptor [1]): 18 nM | Activity (NIH3T3): Non-toxic | Activity [2]: Non-toxic | IC50 (Androgen receptor [3]): 10 nM | IC50 (Androgen receptor [4]): 240 nM | Tmax [5]: 3.33 h | AUC(0-t) [6]: 20500 ng·h/mL | AUC(0-t) [7]: 32000 ng·h/mL | Vd/F [8]: 11.1 L/kg | Vz/F_obs [9]: 6.8 L/kg | CL/F [10]: 10.2 mL/min/kg | MRT last [11]: 6.65 h | bioavailability [12]: 61.5% | half-life [13]: 0.618 h | half-life [14]: 1.58 h | half-life [15]: 0.367 h | microsomal CLint [16]: 18.7 µL/min/mg | microsomal CLint [17]: 7.3 µL/min/mg | microsomal CLint [18]: 23.4 µL/min/mg | microsomal CLint [19]: 18 µL/min/mg | remaining at 1 h [20]: 29.7% | remaining at 1 h [21]: 55.1% | remaining at 1 h [22]: 32.3% | Activity [23]: Non-toxic | LD50 at 336 h [24]: 1250 mg/kg | Activity [25]: Non-toxic | Activity [26]: Non-toxic
